The values below come from publication PMC13168289, “Potent acridone antimalarial against all three life stages of Plasmodium” (Nature Communications, 2026).

Where two headings read alike, the source gives them in different places.

Data set [1] is described as follows: host hepatocyte viability in the P. cynomolgi assay. The class given is cell-based, rhesus. Conditions: rhesus monkey; radical cure mode; read-out: cytotoxicity CC50. The procedure:
The liver-stage P. cynomolgi assay was designed to identify anti-hypnozoite drugs utilizing a 384-well in vitro culture system[31],[37]. Briefly, cryopreserved primary simian hepatocytes (donor lots XGB, OQB, and QHO: BioIVT, Inc.) were seeded in collagen-coated 384-well plates and infected with P. cynomolgi bastianellii (B strain) sporozoites dissected from infected Anopheles dirus mosquitoes. Test compounds were solubilized in 100% DMSO and serially diluted 2-fold to generate up to a 12-point dose-response curve, maintaining a final DMSO concentration of 0.1% across all wells. Two distinct treatment modes were evaluated. For the prophylactic assay, to assess the prevention of infection, compound exposure began 1-hour post-infection with daily media changes on Days 1 and 2. For the radical cure assay, to assess activity against established liver forms, drugs were administered daily from Day 4 through Day 7 post-infection. […] For readout on Day 8, plates were fixed and stained via immunofluorescence to visualize parasite forms (hypnozoites and schizonts) and hepatocyte nuclei, and images were acquired using an Operetta CLS high-content imaging system (PerkinElmer). Host hepatocyte viability was measured in parallel to determine compound toxicity. Parasite forms were automatically quantified using Harmony 4.9 software, and percent inhibition and toxicity were calculated relative to in-plate DMSO vehicle controls. IC50 and CC50 (half-maximal cytotoxic concentrations) were determined by fitting dose-response data to a four-parameter logistic (variable slope) model using a custom Python script incorporating a grid search algorithm.

Data set [2] has as its system P. cynomolgi hypnozoites and schizonts. On the set-up: method as in PMID: 21483865. The note with it: primary hepatocyte P. cynomolgi assays; ref PMID: 21483865; read-out: in vitro liver-stage IC50; cited from earlier work.
Data set [3] can be described thus: cytotoxicity against HepG2 cells. The class given is cell-based. The note with it: human, HepG2 cells; read-out: inhibition IC50 vs HepG2. The procedure: Cytotoxicity was evaluated in human HepG2 liver cells, using an MTT assay. Briefly, HepG2 cells were cultured in complete Dulbecco’s modified Eagle’s medium (DMEM; Gibco-Invitrogen, No. 11995-065) prepared by supplementing DMEM with 10% heat inactivated FBS (Gibco-Invitrogen, No. 16000-036), 100 units/mL penicillin, and 100 µg/mL streptomycin. Cell viability was assessed using trypan blue. Ninety-six-well plates were seeded with 2 × 10^4 cells per well and incubated at 37 °C overnight in a humidified 5% CO2 atmosphere. Test compound plates were prepared with an INTEGRA assist plus station and 96-well plates containing 11 duplicate 2-fold serial dilutions of test compound suspended in DMSO. The diluted test compound was then added to the corresponding well preseeded with HepG2 cells. […] After incubation, 20 µL of a 0.1 mg/mL solution of resazurin diluted in PBS was added to each well, and all plates were subsequently incubated for 3–4 h in an incubator. Absorbance was determined with the Molecular Devices SpectraMax plate reader. Three independent experiments, each in duplicate, were performed, and the IC50 values were determined using GraphPad Prism software (Version 10) using the non-linear regression equation (sigmoidal dose-response, variable slope).

Data set [4] has as its system P. falciparum K13 mutant parasites SP045 and SP060. Description: Growth, Resistance, and Recovery Assay (GRRA), ring-stage survival dose-response. The class given is cell-based, Plasmodium falciparum. The note with it: read-out: GRRA50. The procedure: These isolates carry the validated R561H Kelch 13 propeller domain mutation associated with delayed parasite clearance in East Africa[24],[25]. Using the 6-hour GRRA[23], all strains were thawed, frozen, and cultured under standard conditions at 5% hematocrit. Samples parasitemia was measured by flow cytometry. Parasite cultures that were predominantly segmented schizonts were synchronized using a single Percoll layer method. Cultures that met quality control requirements of ≥70% early ring stage and ≥1% parasitemia were adjusted to 0.25% parasitemia at 2% hematocrit. […] The GRRA50 implements 11 RSA experiments to generate a dose-response curve for each parasite line per drug. Master mixes of samples were aliquoted into 2 technical replicates of 275 µL each in 96 well plates (2 treated each condition, 2 untreated). At 6 h post-exposure, 200 µL of media was removed from the wells and replaced with 200 µL of incomplete media and spun for 3 min at 800 g to rinse. The rinse was repeated a total of 3 times, after which 200 µL complete media was added back to the wells. At 120 h post-treatment, thin microscopy smears were made using 2 µL of culture for each sample and 20 µL of culture was transferred to PCR strips and stored at −80 °C until qPCR quantification. A standard curve of known parasitemia was generated using the NF54 parasite line for each qPCR quantification for conversion from Cycle threshold (Ct) to parasitemia and comparison between qPCR experiments. Replicate viability was calculated according to the GRRA method. Each individual reaction mixture and cycling conditions were set to previously used methods. Ct was calculated using AB1 SDA 2.4.1. software. […] We find that commonly reported thresholds (cutoffs) for resistance (e.g., 1% survival in traditional RSA) may not be broadly applicable, especially with lower thresholds subject to potential artifacts due to markedly low survival rates of ART-sensitive and low-level ART-resistant parasites. Regular RSA relies on a single drug concentration, 700 nM. To gain a more fine-scale quantification to compare drug susceptibilities with relevance to therapeutic success and failure, we developed the GRRA50 to generate full dose-response curves for precise quantitative comparisons.

The nature of data set [5]: maximum tolerated dose (MTD) study, single oral dose. It is filed as in vivo, Sprague Dawley rats. The note with it: oral gavage, male and female rats. The procedure:
In vivo toxicology and TK studies in rats were performed at SRI International, using the well-established methods[83]–[85]. Rats were housed in microisolator cages with hardwood chip bedding (Sani-Chips; Envigo Teklad) and maintained on a 12 h light/dark cycle. Environmental conditions were controlled at 20–26 °C (68–79 °F) with 30–70% relative humidity. […] Male and female Sprague Dawley outbred rats were randomly assigned to treatment and control groups using a simple randomization procedure to ensure a balanced distribution of baseline weights across all cohorts. […] For TK studies, blood was collected from animals at 6 time points post dose on Day 1 (0.5, 1, 2, 4, 8, and 24 h) and on Day 7 (0.5, 2, 8, 24, 48, and 96 h). Drug levels were determined in collected plasma samples using bioanalytical method developed at SRI. The plasma drug level data were analyzed using Phoenix WinNonlin (version 8.3) software to perform noncompartmental data analysis.

Broadly, the CC50 is the concentration at which the toxic effect on the cells reaches its halfway point. For `O=C1C(O)=C([C@H]2CC[C@H](c3ccc(Cl)cc3)CC2)C(=O)c2ccccc21` [ATV, atovaquone], the CC50 at 4 days in data set [1] worked out at 3960 nM. Further, in data set [2], the IC50 is around 2000 nM. For the same compound, the IC50 at 24 h in data set [3] is 61200 nM.

As to `O=c1c2ccc(Oc3ccc(OC(F)(F)F)cc3)cc2[nH]c2cc(Cl)cc(F)c12` [T111], the IC50 in data set [4] (SP045 (K13 V555A, ART-S)) stood at 0.78 nM; in data set [4] (SP060 (K13 R561H, ART-R)), 0.87 nM. In addition, the “single dose MTD” value in data set [5] was “greater than 400 mg/kg”.
